Results published in patent US20250003994A1, “DEVICE AND METHOD FOR TREATING TISSUE OXYGEN DEFICIENT CONDITIONS” (IP SCIENCE LIMITED, priority 2021, published 2025).

The molecules below were run on clinically healthy volunteers (assay: Oxygen carrying capacity of plasma lipoproteins (OCCL) by catalymetry assay, one-month intake, Example 2.4). Conditions: 0 w (prior the trial).
Assay type: in vivo, human
Method: 6 healthy volunteers (HV, 42-61 years old) and 4 CAD patients, eligible for the treadmill test (age 45-59 years old) were recruited for this study. Apart from assessing changes their electrocardiogram (ECG), pulse and blood pressure, samples and level of oxygen carrying capacity of plasma lipoproteins, OCCL, from venous blood was analyzed prior to the test and within 3-4 minutes afterward. The measurement was conducted using a catalymetry assay. In short, 10 μl of citrate plasma was added to 0.98 ml cuvette of 0.05 M phosphate buffer with 0.1 mM sodium ethylenediamine tetraacetic acid (EDTA-Na), containing 10^−6 M phenazine methosulphate and 10^−4 M nitro blue tetrazolium chloride (NBT). The reaction was initiated by adding 10 μl of 10^−4 M NADH.
The difference in absorption at λ=560 nm between starting point and after 60 seconds was measured by spectroscopy. This difference was used to measure oxygen-depended reduction of NBT. The results of this reaction were compared with the control reaction where instead of plasma 10 μl of the reaction buffer was added. The difference in the reduction of NBT with the analyzed sample and the control was used to calculate the amount of O2 in added plasma lipoproteins.
In this section the effects of regular intake of validated bioactive nutraceuticals on blood OCCL and tissue oxygen saturation (StO2) was evaluated.
(§1) For this study […] clinically healthy volunteers were recruited (age 35-57 years old), 30 male and 34 female). The subjects had not taken any medication or dietary supplements prior to the experiment. The volunteers were randomized and divided into 7 groups of 8 persons each. The participants were given a one-month supply of a particular nutraceutical or pharmaceutical. […] The daily dose for each product was taken in 1 capsule with the main meal of the day. The blood and StO2 were analyzed prior the trial and after (4 weeks). OCCL was analyzed as described above.
`C=C1CC[C@H](O)C/C1=C/C=C1\CCC[C@]2(C)[C@@H]([C@H](C)CCCC(C)C)CC[C@@H]12` [Vitamin D3] was tested, and the OCCL was 412 ± 48 ΔE at λ = 560 nm × 10^3.
With `CC(C)=CCC/C(C)=C/C=C/C(C)=C/C=C/C(C)=C/C=C/C=C(C)/C=C/C=C(C)/C=C/C=C(\C)CCC=C(C)C` [Lycopene] the OCCL was 648 ± 41 ΔE at λ = 560 nm × 10^3.
For `CC1=C(/C=C/C(C)=C/C=C/C(C)=C/C=C/C=C(C)/C=C/C=C(C)/C=C/C2=C(C)C(=O)[C@@H](O)CC2(C)C)C(C)(C)C[C@H](O)C1=O` [Astaxanthin], the OCCL was 539 ± 52 ΔE at λ = 560 nm × 10^3.
With `CCC(C)(C)C(=O)O[C@H]1C[C@@H](C)C=C2C=C[C@H](C)[C@H](CC[C@@H]3C[C@@H](O)CC(=O)O3)[C@H]21` [Simvastatin, reference compound] the OCCL was 451 ± 51 ΔE at λ = 560 nm × 10^3.
In the case of `CC/C=C\C/C=C\C/C=C\C/C=C\C/C=C\C/C=C\CCC(=O)O` [DHA Omega 3], the OCCL was 626 ± 34 ΔE at λ = 560 nm × 10^3.
`COC1=C(OC)C(=O)C(C/C=C(\C)CC/C=C(\C)CC/C=C(\C)CC/C=C(\C)CC/C=C(\C)CC/C=C(\C)CC/C=C(\C)CC/C=C(\C)CC/C=C(\C)CCC=C(C)C)=C(C)C1=O` [Coenzyme Q10] was tested, and the OCCL was 505 ± 66 ΔE at λ = 560 nm × 10^3.

Same assay, conditions: 4 w, daily dose in 1 capsule with main meal
For `C=C1CC[C@H](O)C/C1=C/C=C1\CCC[C@]2(C)[C@@H]([C@H](C)CCCC(C)C)CC[C@@H]12` [Vitamin D3], the OCCL was 443 ± 51 ΔE at λ = 560 nm × 10^3.
With `CC(C)=CCC/C(C)=C/C=C/C(C)=C/C=C/C(C)=C/C=C/C=C(C)/C=C/C=C(C)/C=C/C=C(\C)CCC=C(C)C` [Lycopene] the OCCL was 786 ± 39 ΔE at λ = 560 nm × 10^3.
With `CC1=C(/C=C/C(C)=C/C=C/C(C)=C/C=C/C=C(C)/C=C/C=C(C)/C=C/C2=C(C)C(=O)[C@@H](O)CC2(C)C)C(C)(C)C[C@H](O)C1=O` [Astaxanthin] the OCCL was 770 ± 57 ΔE at λ = 560 nm × 10^3.
For `CCC(C)(C)C(=O)O[C@H]1C[C@@H](C)C=C2C=C[C@H](C)[C@H](CC[C@@H]3C[C@@H](O)CC(=O)O3)[C@H]21` [Simvastatin, reference compound], the OCCL was 504 ± 53 ΔE at λ = 560 nm × 10^3.
In the case of `CC/C=C\C/C=C\C/C=C\C/C=C\C/C=C\C/C=C\CCC(=O)O` [DHA Omega 3], the OCCL was 639 ± 42 ΔE at λ = 560 nm × 10^3.
For `COC1=C(OC)C(=O)C(C/C=C(\C)CC/C=C(\C)CC/C=C(\C)CC/C=C(\C)CC/C=C(\C)CC/C=C(\C)CC/C=C(\C)CC/C=C(\C)CC/C=C(\C)CCC=C(C)C)=C(C)C1=O` [Coenzyme Q10], the OCCL was 593 ± 64 ΔE at λ = 560 nm × 10^3.

Same assay, conditions: 4 weeks daily intake
For `C=C1CC[C@H](O)C/C1=C/C=C1\CCC[C@]2(C)[C@@H]([C@H](C)CCCC(C)C)CC[C@@H]12` [Vitamin D3], the “Effect of regular intake on OCCL (in words)” value (shortened to “Effect … on OCCL (in words)”) was “did not affect”.
For `CC/C=C\C/C=C\C/C=C\C/C=C\C/C=C\C/C=C\CCC(=O)O` [DHA Omega 3], the “Effect … on OCCL (in words)” value was “did not affect”.
`COC1=C(OC)C(=O)C(C/C=C(\C)CC/C=C(\C)CC/C=C(\C)CC/C=C(\C)CC/C=C(\C)CC/C=C(\C)CC/C=C(\C)CC/C=C(\C)CC/C=C(\C)CCC=C(C)C)=C(C)C1=O` [Coenzyme Q10] was tested, and the “Effect … on OCCL (in words)” value was “increase in OCCL”.

Each molecule was assayed on clinically healthy volunteers (assay: Blood LDL concentration, one-month intake, Example 2.4). Conditions: 0 w (prior the trial), 8 per group.
Assay type: in vivo, human
From the text: Since oxygen solubility is higher in lipids than in aqueous media, it was interesting to examine a possible link between changes in OCCL and lipoprotein concentration in blood.
as §1
`C=C1CC[C@H](O)C/C1=C/C=C1\CCC[C@]2(C)[C@@H]([C@H](C)CCCC(C)C)CC[C@@H]12` [Vitamin D3] gave an LDL of 156 ± 8.4 mg/dL.
`CC(C)=CCC/C(C)=C/C=C/C(C)=C/C=C/C(C)=C/C=C/C=C(C)/C=C/C=C(C)/C=C/C=C(\C)CCC=C(C)C` [Lycopene] showed an LDL of 156 ± 6.1 mg/dL.
`CC1=C(/C=C/C(C)=C/C=C/C(C)=C/C=C/C=C(C)/C=C/C=C(C)/C=C/C2=C(C)C(=O)[C@@H](O)CC2(C)C)C(C)(C)C[C@H](O)C1=O` [Astaxanthin] was tested, and the LDL was 153 ± 7.3 mg/dL.
`CC/C=C\C/C=C\C/C=C\C/C=C\C/C=C\C/C=C\CCC(=O)O` [DHA Omega 3] showed an LDL of 155 ± 9.2 mg/dL.
`COC1=C(OC)C(=O)C(C/C=C(\C)CC/C=C(\C)CC/C=C(\C)CC/C=C(\C)CC/C=C(\C)CC/C=C(\C)CC/C=C(\C)CC/C=C(\C)CC/C=C(\C)CCC=C(C)C)=C(C)C1=O` [Coenzyme Q10] showed an LDL of 143 ± 5.7 mg/dL.

Same assay, conditions: 4 w, daily dose in 1 capsule with main meal
Molecule `C=C1CC[C@H](O)C/C1=C/C=C1\CCC[C@]2(C)[C@@H]([C@H](C)CCCC(C)C)CC[C@@H]12` [Vitamin D3] has an LDL of 144 ± 5.9 mg/dL.
`CC(C)=CCC/C(C)=C/C=C/C(C)=C/C=C/C(C)=C/C=C/C=C(C)/C=C/C=C(C)/C=C/C=C(\C)CCC=C(C)C` [Lycopene] was tested, and the LDL was 135 ± 7.0 mg/dL.
`CC1=C(/C=C/C(C)=C/C=C/C(C)=C/C=C/C=C(C)/C=C/C=C(C)/C=C/C2=C(C)C(=O)[C@@H](O)CC2(C)C)C(C)(C)C[C@H](O)C1=O` [Astaxanthin] showed an LDL of 151 ± 6.2 mg/dL.
`CC/C=C\C/C=C\C/C=C\C/C=C\C/C=C\C/C=C\CCC(=O)O` [DHA Omega 3] was tested, and the LDL was 154 ± 7.5 mg/dL.
Work on `COC1=C(OC)C(=O)C(C/C=C(\C)CC/C=C(\C)CC/C=C(\C)CC/C=C(\C)CC/C=C(\C)CC/C=C(\C)CC/C=C(\C)CC/C=C(\C)CC/C=C(\C)CCC=C(C)C)=C(C)C1=O` [Coenzyme Q10] yielded an LDL of 140 ± 4.2 mg/dL.

Each molecule was assayed on clinically healthy volunteers (assay: Tissue oxygen saturation (StO2) by near-infrared spectroscopy with stagnant ischemia, Example 2.4). Conditions: 0 w (prior the trial), area under hyperemic curve post occlusion.
Assay type: in vivo, human
Method: as §1
Thenar eminence and forearm muscles of the patients were used as a tissue target for the assessment of StO2, or combined level of oxygenated hemoglobin and myoglobin. StO2 was assessed by continuous wavelength near-infrared spectroscopy, NIRS, with wide-gap second-derivative (In Spectra, Hutchinson Technology, MN, USA), as known in the art. The measurements were taken at different time points. The recording was initiated after 15 min of rest in a supine position, before occlusion of the brachial artery. It was then continued during stagnant ischemia induced by rapidly inflating a cuff to 50 mm Hg above systolic BP. The ischemia lasted for 3 min, and the recording period lasted for an additional 5 min, until StO2 was stabilized
The area under the hyperemic curve, AUC, of the recorded signal for the settling time in the post occlusion period was then calculated in AUC mm, or % O2/min. All body and vascular parameters were recorded in the morning between 8 and 10 a.m.
`C=C1CC[C@H](O)C/C1=C/C=C1\CCC[C@]2(C)[C@@H]([C@H](C)CCCC(C)C)CC[C@@H]12` [Vitamin D3] was tested, and the StO2 was 66.8 ± 6.0 AUC mm.
For `CC(C)=CCC/C(C)=C/C=C/C(C)=C/C=C/C(C)=C/C=C/C=C(C)/C=C/C=C(C)/C=C/C=C(\C)CCC=C(C)C` [Lycopene], the StO2 was 75 ± 0.73 AUC mm.
`CC1=C(/C=C/C(C)=C/C=C/C(C)=C/C=C/C=C(C)/C=C/C=C(C)/C=C/C2=C(C)C(=O)[C@@H](O)CC2(C)C)C(C)(C)C[C@H](O)C1=O` [Astaxanthin] gave a StO2 of 77 ± 0.74 AUC mm.
In the case of `CCC(C)(C)C(=O)O[C@H]1C[C@@H](C)C=C2C=C[C@H](C)[C@H](CC[C@@H]3C[C@@H](O)CC(=O)O3)[C@H]21` [Simvastatin, reference compound], the StO2 was 70 ± 0.72 AUC mm.
For `CC/C=C\C/C=C\C/C=C\C/C=C\C/C=C\C/C=C\CCC(=O)O` [DHA Omega 3], the StO2 was 74 ± 0.71 AUC mm.
For `COC1=C(OC)C(=O)C(C/C=C(\C)CC/C=C(\C)CC/C=C(\C)CC/C=C(\C)CC/C=C(\C)CC/C=C(\C)CC/C=C(\C)CC/C=C(\C)CC/C=C(\C)CCC=C(C)C)=C(C)C1=O` [Coenzyme Q10], the StO2 was 75.0 ± 7.4 AUC mm.

Same assay, conditions: 4 w, daily dose in 1 capsule with main meal, area under hyperemic curve post occlusion
With `C=C1CC[C@H](O)C/C1=C/C=C1\CCC[C@]2(C)[C@@H]([C@H](C)CCCC(C)C)CC[C@@H]12` [Vitamin D3] the StO2 was 71.2 ± 6.8 AUC mm.
With `CC(C)=CCC/C(C)=C/C=C/C(C)=C/C=C/C(C)=C/C=C/C=C(C)/C=C/C=C(C)/C=C/C=C(\C)CCC=C(C)C` [Lycopene] the StO2 was 85 ± 0.61 AUC mm.
Molecule `CC1=C(/C=C/C(C)=C/C=C/C(C)=C/C=C/C=C(C)/C=C/C=C(C)/C=C/C2=C(C)C(=O)[C@@H](O)CC2(C)C)C(C)(C)C[C@H](O)C1=O` [Astaxanthin] has a StO2 of 87 ± 0.84 AUC mm.
`CCC(C)(C)C(=O)O[C@H]1C[C@@H](C)C=C2C=C[C@H](C)[C@H](CC[C@@H]3C[C@@H](O)CC(=O)O3)[C@H]21` [Simvastatin, reference compound] gave a StO2 of 73 ± 0.81 AUC mm.
`CC/C=C\C/C=C\C/C=C\C/C=C\C/C=C\C/C=C\CCC(=O)O` [DHA Omega 3] showed a StO2 of 76 ± 0.92 AUC mm.
For `COC1=C(OC)C(=O)C(C/C=C(\C)CC/C=C(\C)CC/C=C(\C)CC/C=C(\C)CC/C=C(\C)CC/C=C(\C)CC/C=C(\C)CC/C=C(\C)CC/C=C(\C)CCC=C(C)C)=C(C)C1=O` [Coenzyme Q10], the StO2 was 84.0 ± 8.5 AUC mm.

Same assay, conditions: 4 weeks daily intake
In the case of `C=C1CC[C@H](O)C/C1=C/C=C1\CCC[C@]2(C)[C@@H]([C@H](C)CCCC(C)C)CC[C@@H]12` [Vitamin D3], the “Effect of regular intake on StO2 / peripheral tissue oxygenation (in words)” value was “did not affect”.
For `CC/C=C\C/C=C\C/C=C\C/C=C\C/C=C\C/C=C\CCC(=O)O` [DHA Omega 3], the “Effect of regular intake on StO2 / peripheral tissue oxygenation (in words)” value was “did not affect”.
For `COC1=C(OC)C(=O)C(C/C=C(\C)CC/C=C(\C)CC/C=C(\C)CC/C=C(\C)CC/C=C(\C)CC/C=C(\C)CC/C=C(\C)CC/C=C(\C)CC/C=C(\C)CCC=C(C)C)=C(C)C1=O` [Coenzyme Q10], the “Effect of regular intake on StO2 / peripheral tissue oxygenation (in words)” value was “significant improvement of peripheral tissue oxygenation”.
